Experimental data as given in ChEMBL document CHEMBL1201862, “PubChem BioAssay data set” (2004).
Activity calls are given as the source filed them. Unless noted, the rule behind the calls is not given here.

Experiments:
[1] = A small molecule screen for inhibitors of the PhoP region in Salmonella typhi (5) using purified and synthesized compounds. [Related pubchem assays (depositor defined):AID1850, AID1864, AID1985, AID2252, AID2384, AID2612, AID2811, AID434995]; type: functional
[2] = target: T1, Heat shock factor protein 1 (Mus musculus, UniProt P38532); assay: inhibition of MG132-induced HSE-luciferase signal, confirmation, cell-based, NIH3T3, luminescence, dose retest (AID 2382); type: functional;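 also: NIH3T3 fibroblasts with HSF1-driven luciferase reporter stressed by proteasome inhibitor MG132; luminescence from HSF1-driven luciferase expression after 8 hours of MG132 stress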
T1 sequence (P38532 whole entry): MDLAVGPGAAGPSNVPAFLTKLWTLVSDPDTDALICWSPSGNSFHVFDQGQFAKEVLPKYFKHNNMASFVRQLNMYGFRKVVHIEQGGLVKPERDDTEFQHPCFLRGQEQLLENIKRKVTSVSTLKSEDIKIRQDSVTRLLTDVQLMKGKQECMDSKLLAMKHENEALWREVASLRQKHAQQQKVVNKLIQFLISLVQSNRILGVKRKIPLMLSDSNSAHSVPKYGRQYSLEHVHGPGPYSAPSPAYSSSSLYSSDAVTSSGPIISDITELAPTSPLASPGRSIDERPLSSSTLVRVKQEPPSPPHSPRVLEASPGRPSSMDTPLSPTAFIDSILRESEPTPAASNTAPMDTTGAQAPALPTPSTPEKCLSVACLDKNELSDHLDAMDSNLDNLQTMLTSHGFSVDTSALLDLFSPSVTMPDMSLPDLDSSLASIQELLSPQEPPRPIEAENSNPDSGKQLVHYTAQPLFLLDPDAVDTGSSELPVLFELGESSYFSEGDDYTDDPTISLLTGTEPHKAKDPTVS

Protein RecA [3] = target: T2, Protein RecA (Mycobacterium tuberculosis, UniProt P9WHJ3); assay: GFP-RecA MOA-DTT Measured in Biochemical System Using Plate Reader - 2047-05_Inhibitor_Dose_DryPowder_Activity. [Related pubchem assays (depositor defined):AID2223]; parameters: species or system Mycobacterium tuberculosis H37Rv
T2 sequence (P9WHJ3 whole entry): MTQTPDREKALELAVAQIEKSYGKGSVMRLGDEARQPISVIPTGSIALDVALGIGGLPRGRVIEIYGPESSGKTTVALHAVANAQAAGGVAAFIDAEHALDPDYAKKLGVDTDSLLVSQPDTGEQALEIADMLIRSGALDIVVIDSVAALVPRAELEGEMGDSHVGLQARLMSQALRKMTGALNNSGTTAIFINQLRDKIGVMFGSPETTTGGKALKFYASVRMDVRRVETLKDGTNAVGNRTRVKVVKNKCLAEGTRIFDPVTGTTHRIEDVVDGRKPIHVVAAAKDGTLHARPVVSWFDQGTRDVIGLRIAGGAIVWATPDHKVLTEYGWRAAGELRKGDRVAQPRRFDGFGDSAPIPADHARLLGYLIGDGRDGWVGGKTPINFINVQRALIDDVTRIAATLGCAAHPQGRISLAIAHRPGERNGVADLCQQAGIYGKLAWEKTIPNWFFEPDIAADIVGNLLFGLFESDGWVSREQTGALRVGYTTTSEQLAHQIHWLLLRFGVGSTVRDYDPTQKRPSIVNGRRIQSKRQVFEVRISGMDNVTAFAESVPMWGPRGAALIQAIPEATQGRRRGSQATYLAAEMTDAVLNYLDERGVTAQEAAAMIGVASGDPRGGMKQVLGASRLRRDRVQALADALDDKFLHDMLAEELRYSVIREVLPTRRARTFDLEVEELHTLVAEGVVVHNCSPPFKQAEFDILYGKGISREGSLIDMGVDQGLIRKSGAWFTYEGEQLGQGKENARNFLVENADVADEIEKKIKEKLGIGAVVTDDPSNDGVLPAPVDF

[4] = GFP fluorescence signal inhibitors, dose response, artefact control, biochemical, plate reader, dry powder (AID 493243)
[5] = Intein inhibitors as potential Tuberculosis drugs, a cytotoxicity screen. [Related pubchem assays (depositor defined):AID2221, AID2223, AID434968, AID435010, AID449749, AID449750, AID489010]; type: functional
[6] = target: T3, Replicative DNA helicase DnaB (Mycobacterium tuberculosis, UniProt P9WMR3); assay: DnaB Intein secondary assay Measured in Biochemical System Using Plate Reader - 2047-04_Inhibitor_Dose_DryPowder_Activity. [Related pubchem assays (depositor defined):AID2223]
T3 sequence (P9WMR3 whole entry): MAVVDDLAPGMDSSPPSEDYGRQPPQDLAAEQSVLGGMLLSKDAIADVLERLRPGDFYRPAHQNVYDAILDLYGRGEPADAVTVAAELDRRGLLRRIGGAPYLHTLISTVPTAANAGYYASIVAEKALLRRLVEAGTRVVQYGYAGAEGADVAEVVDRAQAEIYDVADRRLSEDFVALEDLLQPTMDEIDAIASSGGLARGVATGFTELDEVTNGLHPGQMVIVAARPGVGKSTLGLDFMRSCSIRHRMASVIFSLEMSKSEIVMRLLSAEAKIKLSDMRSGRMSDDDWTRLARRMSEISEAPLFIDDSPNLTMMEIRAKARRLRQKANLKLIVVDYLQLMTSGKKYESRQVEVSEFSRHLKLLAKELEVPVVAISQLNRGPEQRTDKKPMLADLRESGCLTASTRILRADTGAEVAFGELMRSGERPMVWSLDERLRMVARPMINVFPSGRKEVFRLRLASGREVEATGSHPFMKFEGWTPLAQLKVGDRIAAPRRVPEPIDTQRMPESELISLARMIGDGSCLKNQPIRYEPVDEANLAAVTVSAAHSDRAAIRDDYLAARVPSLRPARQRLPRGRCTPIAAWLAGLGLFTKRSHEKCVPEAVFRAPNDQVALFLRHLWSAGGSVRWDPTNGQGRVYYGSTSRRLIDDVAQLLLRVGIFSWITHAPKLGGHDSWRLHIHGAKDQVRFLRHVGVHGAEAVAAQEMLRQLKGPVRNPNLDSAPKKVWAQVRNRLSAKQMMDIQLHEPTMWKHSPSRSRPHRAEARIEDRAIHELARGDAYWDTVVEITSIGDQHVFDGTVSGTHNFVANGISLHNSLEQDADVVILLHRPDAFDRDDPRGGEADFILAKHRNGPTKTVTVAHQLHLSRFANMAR

[7] = target: DNA damage-inducible transcript 3 protein (Mus musculus, UniProt P35639); type: functional, Cricetulus griseus
Protein RecA [8] = target: T2, Protein RecA; assay: RecA Intein Measured in Biochemical System Using Plate Reader - 2047-02_Inhibitor_Dose_DryPowder_Activity. [Related pubchem assays (depositor defined):AID2223]; parameters: species or system Mycobacterium tuberculosis H37Rv
[9] = target: T3, Replicative DNA helicase DnaB; assay: DnaB intein splicing inhibitors, dose response, biochemical, cell-free fluorescence (AID 449749); type: functional
Protein RecA [10] = target: T2, Protein RecA; assay: Fluorescence Cell-Free Homogeneous Dose Retest to Identify Inhibitors of RecA-Intein Splicing Activity. [Related pubchem assays (depositor defined):AID2097, AID2223, AID489010, AID492950]; type: functional
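For CC50 in this document: cells exposed to compound for 72 hours before luminescence readout.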

DNA damage-inducible transcript 3 protein, sequence (P35639 whole entry): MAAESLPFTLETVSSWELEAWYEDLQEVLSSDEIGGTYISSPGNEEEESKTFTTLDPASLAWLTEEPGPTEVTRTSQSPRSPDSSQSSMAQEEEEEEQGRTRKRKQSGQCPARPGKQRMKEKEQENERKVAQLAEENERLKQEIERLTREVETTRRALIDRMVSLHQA

| Compound | IC50 [1] | EC50 [2] | AC50 (Protein RecA [3]) | AC50 [4] | CC50 [5] | AC50 [6] | Absolute IC50 (CHOP) [7] [µM] | AC50 (Protein RecA [8]) | AC50 [9] | EC50 (Protein RecA [10]) |
| --- | --- | --- | --- | --- | --- | --- | --- | --- | --- | --- |
| O=C1C2=C(Nc3ccccc3SC2c2cccnc2)c2ccccc21 (stereo not given) | > 150 µM (active) | – | – | – | – | – | – | – | – | – |
| O=C(CCl)Nc1cn(-c2ccccc2)nc1-c1ccc(F)cc1 | – | 6.91 µM (active) | 29.4 µM (active) | 262 µM (active) | 6.59 µM (active) | 101 µM (active) | 10 | 8.58 µM (active) | 2.77 µM (active) | 2.77 µM (active) |
